In patent US9249035B2, “Method and system for treating water in order to reduce its endocrine disrupting effect by means of a living organism” (Veolia Water Solutions & Technologies Support, priority 2012, dated 2016):

System: larvae of genetically modified amphibians
Experiment: Calibration test: fluorescence of genetically modified amphibian larvae exposed to growing estrogen concentrations
Assay type: in vivo
Settings: FIG. 3
Protocol: A test of calibration of a plant to implement the method according to the invention was carried in order to determine an acceptable threshold value of endocrine disruptors in the treated water. This calibration test also makes it possible to distinguish the natural fluorescence of water and the basal fluorescence of genetically modified aquatic organisms, related to the normal functioning of the genes, from the fluorescence emitted by the same organisms when they detect the presence of an endocrine disrupting and/or toxic and/or genotoxic pollutant. The fluorescence of water and the basal fluorescence of the genetically modified aquatic organisms can be likened to background noise which must be evaluated in order to deduct it from the signal measured in the presence of a pollutant.
The disruptor chosen for example is estrogen which is found in urban wastewater. […] These concentrations have been related to measured intensities of fluorescence.
From a reading of this graph, it can observed that amphibian larvae are sensitive to very low doses of estrogen such as ethinyl-oestradiol (EE2) (2.5×10^−10 mol/L) and emit a detectable and quantifiable intensity of fluorescence. […] This concentration is related with the measured intensity of fluorescence. […]

## ethinyl-oestradiol
  estrogen concentration leading to a physiological reversal: ≥ 2×10^−9 mol/L
  very low dose at which amphibian larvae emit a detectable and quantifiable intensity of fluorescence: 2.5e-10 mol/L
